Laboratory results published in patent US20200068890A1 (Person to Whom the Inventor is Obligated to Assign, priority 2017, published 2020).
Where “and” joins values, the source holds several entries; their conditions need not be identical. Equal entries are not always repeated. Where two headings read alike, the source gives them in different places.

Columns and labels:
[1] = tested on: human liver cells (HepG2); assay: MTT viability assay; settings: for % viability 1 / % viability 2 / % viability 3: 48 hrs
Experimental: (§1) Cells were harvested and resuspended in growth media (5-10 ml) to count. Cells were diluted to the appropriate concentration (5×10^3), and seeded into 96-well plates as follows: (a) 50 μl of cells per well, (b) 100 μl of growth media in the Blank wells, (c) 100 μl PBS in outer wells (to prevent dehydration of media from the cells). Cells were incubated overnight at 37° C. (5% CO2).
(§2) Compounds were prepared as serial dilutions in growth media. Each treatment concentration was performed in triplicate. 50 μl/well of prepared compound was added to cells.
(§3) A no treatment triplicate (100% viability) was also included by adding 50 μl of growth media to cells. Plates were returned to the incubator for 48 hrs.
(§4) MTT powder in 1×PBS was prepared at 5 mg/ml and filter sterilised. MTT was added to serum-free media to a final concentration of 1 mg/ml. 100 μl of the MTT solution (1 mg/ml) was added to each well, including 0 μM and blank wells. Plates were incubated at 37° C. in incubator for 3 hrs. Following incubation, the media was removed from wells without disrupting the purple crystals formed. 100 μl of DMSO was added to each well using a multichannel pipette. The plates were shaken on the plate shaker until all the crystals have dissolved. The absorbance was measured at 570 nm using a plate reader. The data was analysed using Microsoft Excel. For each treatment concentration the average was calculated, the blank was subtracted and the cell viability was determined as a percentage of the no treatment control (DMSO vehicle control).

[2] = tested on: human kidney cells (HEK293); assay: MTT viability assay; settings: for % Viability Remaining 1 / % Viability Remaining 2 / % Viability Remaining 3: 48 hrs
Experimental: as §1, §2, §3, §4

A. thaliana seedlings = assay: In planta seedling development and root length on GM/MS media; assay type: in vivo; settings: for Normalised root / Root Length: individual plants 1-20
Experimental: Gamborg modified/Murashige Skoog (GM/MS) media and soil were prepared as according to Table 6.
A. thaliana seeds were sterilised including a 15 min wash step in 10% (v/v) commercial bleach without the addition of detergents. All plants were grown in a controlled environment room (CER) at 22±5° C. with 16 hrs: 8 hrs light: dark, 50-60% humidity under cool-white fluorescent light. Plants grown on soil were regularly watered and relocated within the CER.
Basta was employed as a positive control at a final recommended concentration of 10 μg/mL (50 μM). Negative controls included 0% (v/v) DMSO (H2O) and 1% (v/v) DMSO (vehicle). Media was poured into 100 mL plates and allowed to set before adding 20 sterilised seeds per plate. Seeds were then stratified at 4° C. for 72 hrs in a dark room prior to relocation into a CER.
The resulting growth plates were monitored daily and allowed to grow in an upright position for up to 14 days post stratification to determine the average root length using ImageJ analysis. Experiments were carried out in triplicates. Results were statistically validated using t-tests employing GraphPad Prism.

MSSA 9144 = assay: Broth microdilution MIC; assay type: cell-based; settings: Staphylococcus aureus
Experimental: Assays were carried out by a broth microdilution method using a 96-well plate according to guidelines defined by the European Committee on Antimicrobial Susceptibility Testing as described here. Overnight cultures of strains were grown in tryptic soy broth (TSB) at 37° C. The overnight cultures were diluted to a concentration of 1×10^6 bacteria/ml (OD600=0.01) in TSB media. To each well on 96 well plates, 100 μl of bacterially infected media at a concentration of 1×10^6/ml and compounds at various concentrations were added. An uninfected control (i.e. no bacteria) was also included. The plates were incubated at 37° C. wrapped in parafilm for 20 hrs. The growth was assessed by measuring the absorbance at 600 nm. The minimum inhibitory concentration (MIC) was determined to be the lowest concentration of compound that inhibits visible bacterial growth.

A. thaliana DHDPS = tested on: T1, A. thaliana DHDPS; assay: DHDPS-DHDPR coupled assay, dose response inhibitor assay; assay type: biochemical, Arabidopsis thaliana
T1 construct: AtDHDPS|10|0.00008; no borders, domain or tags given

COc1ccccc1/C=C1\SC(=O)N(CC(=O)O)C1=O [Compound 3, (Z)-2-(5-(2-Methoxybenzylidene)-2,4-dioxothiazolidin-3-yl)acetic Acid]
% viability 1 ([1]; HepG2, 12.5 μM): 110% | % viability 2 ([1]; HepG2, 12.5 μM): 104% | % viability 3 ([1]; HepG2, 12.5 μM): 92.2% | % viability 1 ([1]; HepG2, 25 μM): 80.2% | % viability 2 ([1]; HepG2, 25 μM): 86.4% | % viability 3 ([1]; HepG2, 25 μM): 91.4% | % viability 1 ([1]; HepG2, 50 μM): 106.4% | % viability 2 ([1]; HepG2, 50 μM): 89.9% | % viability 3 ([1]; HepG2, 50 μM): 98.7% | % viability 1 ([1]; HepG2, 100 μM): 80.2% | % viability 2 ([1]; HepG2, 100 μM): 89.3% | % viability 3 ([1]; HepG2, 100 μM): 82.2% | % viability 1 ([1]; HepG2, 200 μM): 84.2% | % viability 2 ([1]; HepG2, 200 μM): 96.5% | % viability 3 ([1]; HepG2, 200 μM): 92.9% | % viability 1 ([1]; HepG2, 400 μM): 76.2% | % viability 2 ([1]; HepG2, 400 μM): 87.9% | % viability 3 ([1]; HepG2, 400 μM): 87.5% | toxicity to HepG2 cells (in words) ([1]; HepG2, MTT, up to 400 μM (Defensin 100 μM)): effectively nontoxic | % Viability Remaining 1 ([2]; HEK293, 12.5 μM): 73.4% | % Viability Remaining 2 ([2]; HEK293, 12.5 μM): 104% | % Viability Remaining 3 ([2]; HEK293, 12.5 μM): 99.0% | % Viability Remaining 1 ([2]; HEK293, 25 μM): 100% | % Viability Remaining 2 ([2]; HEK293, 25 μM): 86.3% | % Viability Remaining 3 ([2]; HEK293, 25 μM): 83.8% | % Viability Remaining 1 ([2]; HEK293, 50 μM): 78.5% | % Viability Remaining 2 ([2]; HEK293, 50 μM): 80.4% | % Viability Remaining 3 ([2]; HEK293, 50 μM): 92.2% | % Viability Remaining 1 ([2]; HEK293, 100 μM): 84.2% | % Viability Remaining 2 ([2]; HEK293, 100 μM): 93.0% | % Viability Remaining 3 ([2]; HEK293, 100 μM): 91.6% | % Viability Remaining 1 ([2]; HEK293, 200 μM): 82.5% | % Viability Remaining 2 ([2]; HEK293, 200 μM): 89.8% | % Viability Remaining 3 ([2]; HEK293, 200 μM): 94.3% | % Viability Remaining 1 ([2]; HEK293, 400 μM): 72.3% | % Viability Remaining 2 ([2]; HEK293, 400 μM): 106% | % Viability Remaining 3 ([2]; HEK293, 400 μM): 85.6% | toxicity to HEK293 cells (in words) ([2]; HEK293, MTT, up to 400 μM (Defensin 100 μM)): effectively nontoxic | Normalised root (A. thaliana seedlings; 15.6 μM in GM/MS media): 126.8 and 79.33 and 8.429 and 111.7 and 109.2 and 119.2 and 125.6 and 130.3 and 102.2 and 104.4 and 74.72 and 87.31 and 77.74 and 72.45 and 127.9 and 91.64 and 101.7 and 3.856 and 113.4 and 59.09 | Root Length (A. thaliana seedlings; 15.6 μM in GM/MS media): 4.242 cm and 2.654 cm and 0.282 cm and 3.737 cm and 3.653 cm and 3.988 cm and 4.202 cm and 4.361 cm and 3.42 cm and 3.494 cm and 2.5 cm and 2.921 cm and 2.601 cm and 2.424 cm and 4.28 cm and 3.066 cm and 3.403 cm and 0.129 cm and 3.794 cm and 1.977 cm | Normalised root (A. thaliana seedlings; 31.3 μM in GM/MS media): 70.03 and 65.16 and 32.16 and 67.4 and 20.77 and 47.64 | Root Length (A. thaliana seedlings; 31.3 μM in GM/MS media): 2.343 cm and 2.18 cm and 1.076 cm and 2.255 cm and 0.695 cm and 1.594 cm | Normalised root (A. thaliana seedlings; 62.5 μM in GM/MS media): 64.32 and 82.41 and 69.91 and 82.88 and 64.47 and 34.82 and 79.21 and 80.49 and 78.28 and 63.37 and 57.96 and 45.82 and 15.99 and 51.14 and 20.03 and 32.64 | Root Length (A. thaliana seedlings; 62.5 μM in GM/MS media): 2.152 cm and 2.757 cm and 2.339 cm and 2.773 cm and 2.157 cm and 1.165 cm and 2.65 cm and 2.693 cm and 2.619 cm and 2.12 cm and 1.939 cm and 1.533 cm and 0.535 cm and 1.711 cm and 0.67 cm and 1.092 cm | Normalised root (A. thaliana seedlings; 125 μM in GM/MS media): 33.06 and 69.91 and 19.58 and 22.27 and 3.796 and 61.99 and 8.578 and 23.43 and 41.58 and 46.33 and 18.05 and 12.76 and 7.532 and 1.225 and 12.64 and 3.945 and 21.19 and 14.91 and 8.907 and 2.032 | Root Length (A. thaliana seedlings; 125 μM in GM/MS media): 1.106 cm and 2.339 cm and 0.655 cm and 0.745 cm and 0.127 cm and 2.074 cm and 0.287 cm and 0.784 cm and 1.391 cm and 1.55 cm and 0.604 cm and 0.427 cm and 0.252 cm and 0.041 cm and 0.423 cm and 0.132 cm and 0.709 cm and 0.499 cm and 0.298 cm and 0.068 cm | Normalised root (A. thaliana seedlings; 250 μM in GM/MS media): 18.35 and 35.03 and 19.34 and 7.741 and 3.318 and 12.7 and 3.049 and 7.532 and 27.32 and 17.58 and 13.9 and 3.916 and 9.923 and 8.07 and 5.619 and 3.497 and 4.513 and 2.66 and 3.378 and 3.676 | Root Length (A. thaliana seedlings; 250 μM in GM/MS media): 0.614 cm and 1.172 cm and 0.647 cm and 0.259 cm and 0.111 cm and 0.425 cm and 0.102 cm and 0.252 cm and 0.914 cm and 0.588 cm and 0.465 cm and 0.131 cm and 0.332 cm and 0.27 cm and 0.188 cm and 0.117 cm and 0.151 cm and 0.089 cm and 0.113 cm and 0.123 cm | Normalised root (A. thaliana seedlings; 500 μM in GM/MS media): 2.75 and 4.065 and 1.674 (2×) and 1.644 and 1.315 and 2.331 (2×) and 0.7472 and 2.272 and 2.062 and 1.076 and 1.435 and 2.63 and 2.092 and 1.584 and 5.021 and 1.375 | Root Length (A. thaliana seedlings; 500 μM in GM/MS media): 0.092 cm and 0.136 cm and 0.056 cm (2×) and 0.055 cm and 0.044 cm and 0.078 cm (2×) and 0.025 cm and 0.076 cm and 0.069 cm and 0.036 cm and 0.048 cm and 0.088 cm and 0.07 cm and 0.053 cm and 0.168 cm and 0.046 cm | seedling development (A. thaliana seedlings; concentrations 125 μM and higher): did not develop past the point of hypocotyl formation | development and growth of A. thaliana (leaves) (A. thaliana seedlings; highest concentrations tested): lack of any chlorophyll containing leaves | MIC (MSSA 9144; MSSA 9144, replicate 1, read-out: MIC #1): > 64 µg/mL | MIC (MSSA 9144; MSSA 9144, replicate 2, read-out: MIC #2): > 64 µg/mL | MIC (MSSA 9144; MSSA 9144, replicate 3, read-out: MIC #3): > 64 µg/mL | IC50 (A. thaliana DHDPS): 70.5 µM
